From patent US12052991B2, “Substituted pyridinyloxybenzenes and salts thereof and use thereof as herbicidal agents” (Bayer Aktiengesellschaft, priority 2018, dated 2024)

What was measured:
Assay type in all cases: in vivo
Lolium rigidum (LOLRI) [1] = test: Herbicidal post-emergence action (Table B2); conditions: 1280 g/ha; rated visually after about 3 weeks; 100% = plants have died, 0% = like control plants
Protocol: (§1) Seeds of mono- and dicotyledonous weed plants were placed in plastic pots in sandy loam soil (doubly sown with in each case one species of mono- or dicotyledonous weed plants per pot), covered with soil and cultivated in a greenhouse under controlled growth conditions. 2 to 3 weeks after sowing, the test plants were treated at the one-leaf stage. The compounds of the invention, formulated in the form of wettable powders (WP) or as emulsion concentrates (EC), were applied onto the green parts of the plants as aqueous suspension or emulsion with addition of 0.5% additive at a water application rate of 600 liters per hectare (converted). After the test plants had been kept in the greenhouse under optimum growth conditions for about 3 weeks, the activity of the preparations was rated visually in comparison to untreated controls. For example, 100% activity=the plants have died, 0% activity=like control plants. Tables B1 to B12 below show the effects of selected compounds of the general formula (I) according to Table 1 on various harmful plants and an application rate corresponding to 1280 or 320 g/ha, which were obtained by the experimental procedure mentioned above.

Setaria viridis (SETVI) [2] = test: Herbicidal post-emergence action (Table B4); conditions: 1280 g/ha; rated visually after about 3 weeks; 100% = plants have died, 0% = like control plants
Protocol: as §1

[3] = tested on: Abutilon theophrasti (ABUTH); test: Herbicidal post-emergence action (Table B5); conditions: rated visually after about 3 weeks, 100% = plants have died, 0% = like control plants
How it was run: (§2)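 Activity was scored visually against untreated plants roughly 3 weeks after treatment, 0% meaning like control and 100% plant death. Application was post-emergence onto green parts at the one-leaf stage, as aqueous suspension/emulsion with 0.5% additive, 600 l/ha, delivering 1280 or 320 g/ha to greenhouse plants in sandy loam.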

[4] = tested on: Amaranthus retroflexus (AMARE); test: Herbicidal post-emergence action (Table B6); conditions: visual rating about 3 weeks after treatment, 100% = plants have died, 0% = like control plants
How it was run: as §2

Stellaria media (STEME) [5] = test: Herbicidal post-emergence action (Table B8); conditions: visual rating about 3 weeks after treatment, 100% = plants have died, 0% = like control plants
How it was run: as §2

[6] = tested on: Alopecurus myosuroides (ALOMY); test: Herbicidal post-emergence action (Table B9); conditions: rated visually after about 3 weeks, 100% = plants have died, 0% = like control plants
How it was run: as §2

[7] = tested on: Digitaria sanguinalis (DIGSA); test: Herbicidal post-emergence action (Table B10); conditions: visual rating about 3 weeks after treatment, 100% = plants have died, 0% = like control plants
How it was run: as §2

Bassia scoparia (KCHSC) [8] = test: Herbicidal post-emergence action (Table B11); conditions: visual rating about 3 weeks after treatment, 100% = plants have died, 0% = like control plants
How it was run: as §2

Veronica persica (VERPE) [9] = test: Herbicidal post-emergence action (Table B12); conditions: visual rating about 3 weeks after treatment, 100% = plants have died, 0% = like control plants
How it was run: as §2

[10] = tested on: Echinochloa crus-galli (ECHCG); test: Herbicidal pre-emergence action, test C (Table C1); conditions: visual scoring after about 3 weeks, 100% = plants have died, 0% = like control plants
How it was run: (§3)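 Application rates of 1280 or 320 g/ha were delivered as WP or EC formulations in water with 0.5% additive, 600 L/ha, onto soil covering freshly sown seeds in sandy loam. Pots stayed under good greenhouse growth conditions, and efficacy was rated as visual percent after about 3 weeks.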

Lolium rigidum (LOLRI) [11] = test: Herbicidal pre-emergence action, test C (Table C2); conditions: dosage 1280 g/ha; visual scoring after about 3 weeks; 100% = plants have died, 0% = like control plants
How it was run: as §3

Poa annua (POAAN) = test: Herbicidal pre-emergence action, test C (Table C3); conditions: visual scoring after about 3 weeks, 100% = plants have died, 0% = like control plants
How it was run: as §3

Setaria viridis (SETVI) [12] = test: Herbicidal pre-emergence action, test C (Table C4); conditions: visual scoring after about 3 weeks, 100% = plants have died, 0% = like control plants
How it was run: as §3

[13] = tested on: Abutilon theophrasti (ABUTH); test: Herbicidal pre-emergence action, test C (Table C5); conditions: visual scoring after about 3 weeks, 100% = plants have died, 0% = like control plants
How it was run: as §3

[14] = tested on: Amaranthus retroflexus (AMARE); test: Herbicidal pre-emergence action, test C (Table C6); conditions: visual scoring after about 3 weeks, 100% = plants have died, 0% = like control plants
How it was run: as §3

[15] = tested on: Matricaria inodora (MATIN); test: Herbicidal pre-emergence action, test C (Table C7); conditions: visual scoring after about 3 weeks, 100% = plants have died, 0% = like control plants
How it was run: as §3

Stellaria media (STEME) [16] = test: Herbicidal pre-emergence action, test C (Table C8); conditions: visual scoring after about 3 weeks, 100% = plants have died, 0% = like control plants
How it was run: as §3

[17] = tested on: Alopecurus myosuroides (ALOMY); test: Herbicidal pre-emergence action, test C (Table C9); conditions: visual scoring after about 3 weeks, 100% = plants have died, 0% = like control plants
How it was run: as §3

[18] = tested on: Digitaria sanguinalis (DIGSA); test: Herbicidal pre-emergence action, test C (Table C10); conditions: visual scoring after about 3 weeks, 100% = plants have died, 0% = like control plants
How it was run: as §3

Bassia scoparia (KCHSC) [19] = test: Herbicidal pre-emergence action, test C (Table C11); conditions: visual scoring vs untreated controls
Excerpt: Seeds of mono- and dicotyledonous weed plants were placed in plastic pots in sandy loam soil (doubly sown with one species each of mono- or dicotyledonous weed plants per pot) and covered with soil. The compounds of the invention, formulated in the form of wettable powders (WP) or as emulsion concentrates (EC), were then applied onto the surface of the covering soil as aqueous suspension or emulsion with addition of 0.5% additive at a water application rate of 600 liters per hectare (converted). After the treatment, the pots were placed in a greenhouse and kept under good growth conditions for the test plants. After about 3 weeks, the effect of the preparations was scored visually in comparison with untreated controls as percentages. For example, 100% activity=the plants have died, 0% activity=like control plants. Tables C1 to C12 below show the effects of selected compounds of the general formula (I) according to Table 1 on various harmful plants and an application rate corresponding to 1280 or 320 g/ha, which were obtained by the experimental procedure mentioned above.

Veronica persica (VERPE) [20] = test: Herbicidal pre-emergence action, test C (Table C12); conditions: visual scoring vs untreated controls
How it was run: as §3

[21] = tested on: harmful plants ABUTH, AMARE, ECHCG, LOLRI, MATIN, POAAN, SETVI, STEME, ALOMY, DIGSA, KCHSC and VERPE; test: Herbicidal post-emergence action, summary of Tables B1-B12; conditions: application rate of 1280 or 320 g of active ingredient per hectare; summary in words
How it was run: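 Activity scored by eye roughly 3 weeks post-treatment against untreated plants, from 0% (no effect) to 100% (plants dead). Application rates were 1280 or 320 g/ha, as aqueous WP/EC spray plus 0.5% additive at 600 L/ha, onto one-leaf-stage weeds grown 2–3 weeks in sandy loam.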

[22] = tested on: harmful plants ABUTH, AMARE, ECHCG, LOLRI, MATIN, POAAN, SETVI, STEME, ALOMY, DIGSA, KCHSC and VERPE; test: Herbicidal pre-emergence action (test C), summary of Tables C1-C12; conditions: application rate of 1280 or 320 g of active ingredient per hectare; summary in words
How it was run: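 Visual % damage versus untreated plants (0% = like control, 100% = died) was scored after about 3 weeks in the greenhouse. Before emergence, seeds sown in sandy loam got a soil-surface spray of compound as WP or EC plus 0.5% additive, using 600 L/ha water at rates of 1280 or 320 g/ha.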

SMILES: Fc1cc(Cl)cnc1Oc1ccccc1-c1cncc(C(F)(F)F)c1 [Example 1-72]
- Post-emergence action against Lolium rigidum (LOLRI) (Lolium rigidum (LOLRI) [1]): 100%
- Post-emergence action against Setaria viridis (SETVI) (Setaria viridis (SETVI) [2]): 90%
- Post-emergence action against Abutilon theophrasti (ABUTH) ([3]; 320 g/ha): 100%
- Post-emergence action against Abutilon theophrasti (ABUTH) ([3]; 1280 g/ha): 100%
- Post-emergence action against Amaranthus retroflexus (AMARE) ([4]; dosage 320 g/ha): 100%
- Post-emergence action against Amaranthus retroflexus (AMARE) ([4]; dosage 1280 g/ha): 100%
- Post-emergence action against Stellaria media (STEME) (Stellaria media (STEME) [5]; dosage 320 g/ha): 100%
- Post-emergence action against Stellaria media (STEME) (Stellaria media (STEME) [5]; dosage 1280 g/ha): 100%
- Post-emergence action against Alopecurus myosuroides (ALOMY) ([6]; 320 g/ha): 100%
- Post-emergence action against Alopecurus myosuroides (ALOMY) ([6]; 1280 g/ha): 100%
- Post-emergence action against Digitaria sanguinalis (DIGSA) ([7]; dosage 320 g/ha): 90%
- Post-emergence action against Digitaria sanguinalis (DIGSA) ([7]; dosage 1280 g/ha): 100%
- Post-emergence action against Bassia scoparia (KCHSC) (Bassia scoparia (KCHSC) [8]; dosage 320 g/ha): 100%
- Post-emergence action against Bassia scoparia (KCHSC) (Bassia scoparia (KCHSC) [8]; dosage 1280 g/ha): 100%
- Post-emergence action against Veronica persica (VERPE) (Veronica persica (VERPE) [9]; dosage 320 g/ha): 100%
- Post-emergence action against Veronica persica (VERPE) (Veronica persica (VERPE) [9]; dosage 1280 g/ha): 100%
- Pre-emergence action against Echinochloa crus-galli (ECHCG) ([10]; dosage 320 g/ha): 100%
- Pre-emergence action against Echinochloa crus-galli (ECHCG) ([10]; dosage 1280 g/ha): 100%
- Pre-emergence action against Lolium rigidum (LOLRI) (Lolium rigidum (LOLRI) [11]): 100%
- Pre-emergence action against Poa annua (POAAN) (Poa annua (POAAN); dosage 320 g/ha): 100%
- Pre-emergence action against Poa annua (POAAN) (Poa annua (POAAN); dosage 1280 g/ha): 100%
- Pre-emergence action against Setaria viridis (SETVI) (Setaria viridis (SETVI) [12]; dosage 320 g/ha): 100%
- Pre-emergence action against Setaria viridis (SETVI) (Setaria viridis (SETVI) [12]; dosage 1280 g/ha): 100%
- Pre-emergence action against Abutilon theophrasti (ABUTH) ([13]; dosage 320 g/ha): 100%
- Pre-emergence action against Abutilon theophrasti (ABUTH) ([13]; dosage 1280 g/ha): 100%
- Pre-emergence action against Amaranthus retroflexus (AMARE) ([14]; dosage 320 g/ha): 100%
- Pre-emergence action against Amaranthus retroflexus (AMARE) ([14]; dosage 1280 g/ha): 100%
- Pre-emergence action against Matricaria inodora (MATIN) ([15]; dosage 320 g/ha): 90%
- Pre-emergence action against Matricaria inodora (MATIN) ([15]; dosage 1280 g/ha): 100%
- Pre-emergence action against Stellaria media (STEME) (Stellaria media (STEME) [16]; dosage 320 g/ha): 90%
- Pre-emergence action against Stellaria media (STEME) (Stellaria media (STEME) [16]; dosage 1280 g/ha): 100%
- Pre-emergence action against Alopecurus myosuroides (ALOMY) ([17]; dosage 320 g/ha): 100%
- Pre-emergence action against Alopecurus myosuroides (ALOMY) ([17]; dosage 1280 g/ha): 100%
- Pre-emergence action against Digitaria sanguinalis (DIGSA) ([18]; dosage 320 g/ha): 100%
- Pre-emergence action against Digitaria sanguinalis (DIGSA) ([18]; dosage 1280 g/ha): 100%
- Pre-emergence action against Bassia scoparia (KCHSC) (Bassia scoparia (KCHSC) [19]; dosage 320 g/ha): 100%
- Pre-emergence action against Bassia scoparia (KCHSC) (Bassia scoparia (KCHSC) [19]; dosage 1280 g/ha): 100%
- Pre-emergence action against Veronica persica (VERPE) (Veronica persica (VERPE) [20]; dosage 320 g/ha): 100%
- Pre-emergence action against Veronica persica (VERPE) (Veronica persica (VERPE) [20]; dosage 1280 g/ha): 100%
- herbicidal activity against the harmful plants of Tables B1-B12 in post-emergence treatment [21]: very good herbicidal activity
- herbicidal activity against the harmful plants of Tables C1-C12 in pre-emergence treatment [22]: very good herbicidal activity
